Results taken from article PMC6191185 (Cancer cell, 2018).

Target: T1, CARM1 (co-activator associated arginine methyltransferase 1, PRMT4) (Homo sapiens, UniProt Q86X55)
T1 sequence (Q86X55 2-608): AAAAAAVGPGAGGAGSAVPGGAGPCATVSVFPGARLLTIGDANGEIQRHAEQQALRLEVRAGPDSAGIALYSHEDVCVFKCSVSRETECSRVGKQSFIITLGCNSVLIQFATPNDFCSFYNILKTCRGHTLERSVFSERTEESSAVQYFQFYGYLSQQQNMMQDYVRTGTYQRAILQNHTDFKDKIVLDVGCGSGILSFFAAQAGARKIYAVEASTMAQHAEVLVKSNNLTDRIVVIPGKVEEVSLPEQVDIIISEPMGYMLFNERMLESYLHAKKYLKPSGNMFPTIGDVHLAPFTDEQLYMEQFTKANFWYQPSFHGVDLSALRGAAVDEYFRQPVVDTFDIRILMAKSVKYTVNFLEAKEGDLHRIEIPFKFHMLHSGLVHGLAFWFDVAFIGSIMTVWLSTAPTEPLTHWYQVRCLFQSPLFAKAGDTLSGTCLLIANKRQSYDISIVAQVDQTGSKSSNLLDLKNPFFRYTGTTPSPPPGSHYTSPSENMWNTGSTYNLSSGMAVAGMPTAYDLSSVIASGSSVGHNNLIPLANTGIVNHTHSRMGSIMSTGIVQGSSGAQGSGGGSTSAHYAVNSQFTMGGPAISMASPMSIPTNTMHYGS
Test: cellular CARM1 substrate methylation
Type: cell-based

CNC[C@@H](O)COc1ccc(Cl)c(-c2nc(-c3c(C)noc3C)c(C)c(N3Cc4cnc(N5CCC5)nc4C3)n2)c1 [EPZ025654]
IC50: 0.018 µM
